Data published in paper PMC7607848 (Journal of medicinal chemistry, 2018).
One block for each compound: values may come before it.

Legend:
hCB1 [1] = biological target: T1, hCB1 (Homo sapiens, UniProt P21554); test: calcium-mobilization inverse-agonist assay in CHO-hCB1 cells; settings: neutral antagonist or inverse agonist
[2] = tested on: alcohol-induced liver steatosis; settings: past studies; cited from earlier work
hCB1 [3] = biological target: T1, hCB1
[4] = tested on: CP55940-induced hypothermia (centrally located CB1 receptors); settings: rodents; cited from earlier work

T1 sequence (P21554 whole entry): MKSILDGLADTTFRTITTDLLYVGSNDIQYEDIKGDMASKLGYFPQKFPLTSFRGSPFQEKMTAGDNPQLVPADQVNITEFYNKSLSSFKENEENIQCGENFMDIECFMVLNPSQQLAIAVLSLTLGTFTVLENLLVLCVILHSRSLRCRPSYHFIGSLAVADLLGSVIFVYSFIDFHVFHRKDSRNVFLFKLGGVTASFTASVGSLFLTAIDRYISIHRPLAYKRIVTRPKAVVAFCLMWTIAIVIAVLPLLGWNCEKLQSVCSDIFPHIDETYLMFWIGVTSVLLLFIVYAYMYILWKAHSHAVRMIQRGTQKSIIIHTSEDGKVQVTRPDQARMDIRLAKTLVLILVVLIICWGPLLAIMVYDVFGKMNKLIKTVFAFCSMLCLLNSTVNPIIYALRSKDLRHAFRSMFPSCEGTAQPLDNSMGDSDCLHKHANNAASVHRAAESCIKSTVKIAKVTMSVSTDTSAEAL

functional mode at hCB1 (hCB1 [1]): inverse agonist
SMILES: Clc1ccc(-n2c(-c3ccccc3Cl)nc3c(N4CCN(Cc5ccccc5Cl)CC4)ncnc32)cc1 [Compound 25, 6-[4-(2-Chlorobenzyl)piperazin-1-yl]-8-(2-chlorophenyl)-9-(4-chlorophenyl)-9H-purine]

SMILES: Cc1c(C(=O)NN2CCCCC2)nn(-c2ccc(Cl)cc2Cl)c1-c1ccc(Cl)cc1 [Compound 1, Rimonabant]
reduction of alcoholic steatosis (AS) [2]: effective at reducing AS

SMILES: N#CC(c1ccccc1)N1CCN(c2ncnc3c2nc(-c2ccccc2Cl)n3-c2ccc(Cl)cc2)CC1 (stereo not shown) [Compound 21, {4-[8-(2-Chlorophenyl)-9-(4-chlorophenyl)-9H-purin-6-yl]-piperazin-1-yl}(phenyl)acetonitrile]
selectivity for hCB1 over hCB2 (binding assays) (hCB1 [3]): ~ 60 fold

SMILES: CCNC1(C(N)=O)CCN(c2ncnc3c2nc(-c2ccccc2Cl)n3-c2ccc(Cl)cc2)CC1 [Compound 2, otenabant]
blocking of CP55940-induced reduction of body temperature [4]: known to block this effect
